Source: PubChem BioAssay (NCI)
Several values for one entry are separate records, joined by “and”; a condition that tells them apart may be missing. Equal values may be shown once.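 Where inhibition never reached the appropriate level, the endpoint shown equals the highest concentration tested. Otherwise, values were interpolated linearly from a five-concentration, 48-hour dose response in 96-well plates. GI50 = concentration required for 50% inhibition of growth. At the TGI there is no net growth.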

What was measured:
Assay in all cases: growth of human tumour cells (NCI), 48 h
K-562 leukemia = system: K-562 leukemia
SW-620 colon = system: SW-620 colon
UACC-257 melanoma = system: UACC-257 melanoma
OVCAR-8 ovarian = system: OVCAR-8 ovarian
MALME-3M melanoma = system: MALME-3M melanoma
RPMI-8226 leukemia = system: RPMI-8226 leukemia
SK-MEL-5 melanoma = system: SK-MEL-5 melanoma
MDA-N = system: MDA-N
LOX IMVI melanoma = system: LOX IMVI melanoma
A498 renal = system: A498 renal
HCT-116 colon = system: HCT-116 colon
HCT-15 colon = system: HCT-15 colon
TK-10 renal = system: TK-10 renal
MDA-MB-435 = system: MDA-MB-435
HT29 colon = system: HT29 colon
NCI-H226 lung = system: NCI-H226 lung
HOP-62 NSCLC = system: HOP-62 NSCLC
NCI-H23 lung = system: NCI-H23 lung
OVCAR-3 ovarian = system: OVCAR-3 ovarian
SR leukemia = system: SR leukemia
ACHN renal = system: ACHN renal
OVCAR-4 ovarian = system: OVCAR-4 ovarian
HCC-2998 colon = system: HCC-2998 colon
MCF7 breast = system: MCF7 breast
NCI/ADR-RES ovarian = system: NCI/ADR-RES ovarian
OVCAR-5 ovarian = system: OVCAR-5 ovarian
A549 NSCLC = system: A549 NSCLC
SNB-19 CNS = system: SNB-19 CNS
SN12C renal = system: SN12C renal
CCRF-CEM leukemia = system: CCRF-CEM leukemia
U251 CNS = system: U251 CNS
MOLT-4 leukemia = system: MOLT-4 leukemia
SF-539 CNS = system: SF-539 CNS
NCI-H522 lung = system: NCI-H522 lung
DU-145 prostate = system: DU-145 prostate
SF-295 CNS = system: SF-295 CNS
HOP-92 NSCLC = system: HOP-92 NSCLC
IGROV1 ovarian = system: IGROV1 ovarian
HS 578T breast = system: HS 578T breast
NCI-H460 lung = system: NCI-H460 lung
786-0 renal = system: 786-0 renal
PC-3 prostate = system: PC-3 prostate
HL-60(TB) leukemia = system: HL-60(TB) leukemia
SNB-75 CNS = system: SNB-75 CNS
SK-MEL-28 melanoma = system: SK-MEL-28 melanoma
SF-268 CNS = system: SF-268 CNS
EKVX NSCLC = system: EKVX NSCLC
UO-31 renal = system: UO-31 renal
SK-MEL-2 melanoma = system: SK-MEL-2 melanoma
T-47D breast = system: T-47D breast
SK-OV-3 ovarian = system: SK-OV-3 ovarian
KM12 colon = system: KM12 colon
M14 melanoma = system: M14 melanoma
COLO 205 colon = system: COLO 205 colon

Question: What does the source list for O=[N+]([O-])c1cccnc1NCC1(CO)CCCC1?
Answer: TGI (K-562 leukemia): 53.2 µM; TGI (SW-620 colon): 54.4 µM; TGI (UACC-257 melanoma): 44.3 µM; TGI (OVCAR-8 ovarian): 50.7 µM; TGI (MALME-3M melanoma): 37.5 µM; TGI (RPMI-8226 leukemia): 59.1 µM; TGI (SK-MEL-5 melanoma): 30.9 µM; TGI (MDA-N): 42.3 µM; TGI (LOX IMVI melanoma): 30.3 µM; TGI (A498 renal): > 100 µM; TGI (HCT-116 colon): 67 µM; TGI (HCT-15 colon): 37.7 µM; TGI (TK-10 renal): 79.3 µM; TGI (MDA-MB-435): 44.1 µM; TGI (HT29 colon): 34.8 µM; TGI (NCI-H226 lung): 68.4 µM; TGI (HOP-62 NSCLC): > 100 µM; TGI (NCI-H23 lung): > 100 µM; TGI (OVCAR-3 ovarian): 46 µM; TGI (SR leukemia): 64.2 µM; TGI (ACHN renal): 70.1 µM; TGI (OVCAR-4 ovarian): > 100 µM; TGI (HCC-2998 colon): 32.8 µM; TGI (MCF7 breast): > 100 µM; TGI (NCI/ADR-RES ovarian): 49 µM; TGI (OVCAR-5 ovarian): 87.1 µM; TGI (A549 NSCLC): > 100 µM; TGI (SNB-19 CNS): > 100 µM; TGI (SN12C renal): 53 µM; TGI (CCRF-CEM leukemia): > 100 µM; TGI (U251 CNS): 31.2 µM; TGI (MOLT-4 leukemia): 40.5 µM; TGI (SF-539 CNS): 49.7 µM; TGI (NCI-H522 lung): 45.9 µM; TGI (DU-145 prostate): > 100 µM; TGI (SF-295 CNS): 56.2 µM; TGI (HOP-92 NSCLC): 54.1 µM; TGI (IGROV1 ovarian): 38.7 µM; TGI (HS 578T breast): 54 µM; TGI (NCI-H460 lung): 47.6 µM; TGI (786-0 renal): 80.1 µM; TGI (PC-3 prostate): 37.8 µM; TGI (HL-60(TB) leukemia): 50.3 µM; TGI (SNB-75 CNS): 34.9 µM; TGI (SK-MEL-28 melanoma): 51.3 µM; TGI (SF-268 CNS): 70.7 µM; TGI (EKVX NSCLC): 76.9 µM

Question: For CC(=O)OCC1OC(Sc2nc(-c3ccc(Cl)cc3)c(C#N)c(=O)n2C2OC(COC(C)=O)C(OC(C)=O)C(OC(C)=O)C2OC(C)=O)C(OC(C)=O)C(OC(C)=O)C1OC(C)=O (stereo unspecified), which GI50 (K-562 leukemia) is on record?
Answer: 36.6 µM

Question: And the TGI (K-562 leukemia)?
Answer: > 100 µM

Question: And the TGI (SW-620 colon)?
Answer: > 100 µM

Question: What about the TGI (UACC-257 melanoma) of the same molecule?
Answer: > 100 µM and 10.8 µM

Question: And the GI50 (OVCAR-8 ovarian)?
Answer: > 100 µM and 17.2 µM

Question: What about the TGI (OVCAR-8 ovarian) of the same molecule?
Answer: > 100 µM

Question: What about the TGI (RPMI-8226 leukemia) of the same molecule?
Answer: > 100 µM

Question: And the TGI (SK-MEL-5 melanoma)?
Answer: > 100 µM and 12.8 µM

Question: And the TGI (MDA-N)?
Answer: > 100 µM and 13.2 µM

Question: And the GI50 (LOX IMVI melanoma)?
Answer: 26.9 µM and 8.49 µM

Question: What about the TGI (LOX IMVI melanoma) of the same molecule?
Answer: > 100 µM

Question: What about the TGI (HCT-116 colon) of the same molecule?
Answer: > 100 µM

Question: And the TGI (HCT-15 colon)?
Answer: > 100 µM and 13.6 µM

Question: And the GI50 (TK-10 renal)?
Answer: > 100 µM and 20.2 µM

Question: And the TGI (TK-10 renal)?
Answer: > 100 µM and 47.8 µM

Question: What about the TGI (MDA-MB-435) of the same molecule?
Answer: > 100 µM and 19.7 µM

Question: What about the TGI (NCI-H226 lung) of the same molecule?
Answer: > 100 µM and 12.1 µM

Question: What about the TGI (HOP-62 NSCLC) of the same molecule?
Answer: > 100 µM and 18.5 µM

Question: What about the TGI (NCI-H23 lung) of the same molecule?
Answer: > 100 µM and 20 µM

Question: And the TGI (OVCAR-3 ovarian)?
Answer: > 100 µM and 24.8 µM

Question: What about the TGI (SR leukemia) of the same molecule?
Answer: 99.8 µM

Question: And the GI50 (UO-31 renal)?
Answer: 27.7 µM and 55.9 µM

Question: And the TGI (UO-31 renal)?
Answer: > 100 µM

Question: And the GI50 (SK-MEL-2 melanoma)?
Answer: > 100 µM and 17.4 µM

Question: What about the TGI (SK-MEL-2 melanoma) of the same molecule?
Answer: > 100 µM

Question: What about the TGI (OVCAR-4 ovarian) of the same molecule?
Answer: 12.1 µM

Question: What about the TGI (MCF7 breast) of the same molecule?
Answer: > 100 µM and 15.4 µM

Question: And the GI50 (NCI/ADR-RES ovarian)?
Answer: > 100 µM and 10.2 µM

Question: And the TGI (NCI/ADR-RES ovarian)?
Answer: > 100 µM

Question: What about the TGI (OVCAR-5 ovarian) of the same molecule?
Answer: > 100 µM and 21.9 µM

Question: And the TGI (A549 NSCLC)?
Answer: > 100 µM

Question: And the GI50 (T-47D breast)?
Answer: 89.8 µM and 17.7 µM

Question: And the TGI (T-47D breast)?
Answer: > 100 µM

Question: And the GI50 (SNB-19 CNS)?
Answer: > 100 µM and 10.7 µM

Question: And the TGI (SNB-19 CNS)?
Answer: > 100 µM and 23.1 µM

Question: And the TGI (U251 CNS)?
Answer: > 100 µM

Question: And the TGI (MOLT-4 leukemia)?
Answer: > 100 µM

Question: What about the TGI (SK-OV-3 ovarian) of the same molecule?
Answer: > 100 µM and 11.2 µM

Question: And the TGI (KM12 colon)?
Answer: > 100 µM and 31 µM

Question: And the TGI (DU-145 prostate)?
Answer: > 100 µM and 25.3 µM

Question: And the TGI (M14 melanoma)?
Answer: > 100 µM

Question: And the GI50 (HOP-92 NSCLC)?
Answer: 2.13 µM

Question: And the TGI (HOP-92 NSCLC)?
Answer: 9.15 µM

Question: And the TGI (IGROV1 ovarian)?
Answer: > 100 µM and 33.5 µM

Question: What about the TGI (HS 578T breast) of the same molecule?
Answer: > 100 µM and 34.3 µM

Question: What about the TGI (PC-3 prostate) of the same molecule?
Answer: > 100 µM and 24.4 µM

Question: What about the TGI (HL-60(TB) leukemia) of the same molecule?
Answer: 8.82 µM

Question: What about the TGI (COLO 205 colon) of the same molecule?
Answer: > 100 µM and 19.3 µM

Question: And the TGI (EKVX NSCLC)?
Answer: > 100 µM
